Assay results from patent publication US6737383B1, “Herbicidal oxadiazolidines” (priority 1999, dated 2004).

What was measured:
[1] = tested on: cocklebur; assay: Test B pre/postemergence cocklebur; assay type: in vivo, Xanthium strumarium
Outline: (§1)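 Response is a visual 0-to-10 score relative to untreated plants, where 0 means no effect and 10 means complete control, taken twelve to sixteen days after application. Treatments went onto soil at planting and onto foliage of 1- to 4-leaf plants, using a surfactant-containing non-phytotoxic solvent.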

[2] = tested on: sugar beet; assay: Test B pre/postemergence sugar beet; assay type: in vivo, Beta vulgaris
Outline: as §1

[3] = tested on: smallflower flatsedge; assay: Test B flood test smallflower flatsedge; assay type: in vivo, Cyperus difformis
Outline: (§2)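 Read-out is a visual response score from 0 (no effect) to 10 (complete control), assigned by comparison with untreated controls. Treatment was applied at the 2-leaf stage, and plants stayed in the greenhouse for twelve to sixteen days before scoring.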

[4] = tested on: bamyardgrass; assay: Test B flood test barnyardgrass; assay type: in vivo, Echinochloa crus-galli
Outline: as §2

[5] = Postemergence, Rate 62 g/ha, scale 0 to 10, 0 is no effect, 10 is complete control
[6] = Postemergence, Rate 250 g/ha, scale 0 to 10, 0 no effect, 10 complete control
[7] = Preemergence, Rate 31 g/ha, visual rating, scale 0 to 10 (0 no effect, 10 complete control)
[8] = Preemergence, Rate 62 g/ha, scale 0 to 10, 0 is no effect, 10 is complete control
[9] = Preemergence, Rate 125 g/ha, scale 0 to 10 (0 no effect, 10 complete control)
[10] = Preemergence, Rate 250 g/ha, scale of 0 to 10 where 0 is no effect and 10 is complete control
[11] = Rate 125 g/ha, Postemergence, scale 0 to 10, 0 no effect, 10 complete control
[12] = Rate 125 g/ha, Postemergence section (flood test species), scale 0 to 10, 0 no effect, 10 complete control
[13] = flood test, listed under Postemergence, Rate 250 g/ha, scale 0 to 10, 0 no effect, 10 complete control
[14] = Postemergence, Rate 250 g/ha, scale 0 to 10
[15] = Postemergence, Rate 500 g/ha, scale of 0 to 10 where 0 is no effect and 10 is complete control
[16] = Preemergence, Rate 62 g/ha, scale 0 to 10 (0 no effect, 10 complete control)
[17] = Preemergence, Rate 125 g/ha, scale of 0 to 10 where 0 is no effect and 10 is complete control
[18] = Preemergence, Rate 250 g/ha, scale 0 to 10, 0 is no effect, 10 is complete control
[19] = Preemergence, Rate 500 g/ha, scale 0 to 10, 0 is no effect, 10 is complete control
[20] = Rate 125 g/ha, Postemergence, scale 0 to 10, 0 is no effect, 10 is complete control
[21] = Postemergence block (flood test species), Rate 250 g/ha, scale 0 to 10
[22] = Postemergence section (flood test species), Rate 500 g/ha, scale of 0 to 10 where 0 is no effect and 10 is complete control
[23] = Rate 125 g/ha, Postemergence section (flood test species), scale 0 to 10, 0 is no effect, 10 is complete control
[24] = Postemergence, Rate 125 g/ha, scale of 0 to 10 where 0 is no effect and 10 is complete control
[25] = Postemergence, Rate 250 g/ha, scale of 0 to 10, 0 is no effect, 10 is complete control
[26] = Preemergence, Rate 500 g/ha, scale of 0 to 10 where 0 is no effect and 10 is complete control
[27] = Rate 62 g/ha, flood test species, Pre-emergence, visual evaluation after twelve to sixteen days
[28] = Rate 125 g/ha, under heading Pre-emergence, flood test species, visual evaluation after twelve to sixteen days
[29] = Rate 250 g/ha, Pre-emergence (flood test species), scale 0 to 10, 0 is no effect, 10 is complete control
[30] = Rate 500 g/ha, Pre-emergence section of Table B, 0 to 10 scale (0 no effect, 10 complete control)

SMILES: COc1ccccc1-n1c(=O)on(C(=O)N(c2ccc(F)cc2F)C(C)C)c1=O [Compound 31]
- Cocklebur plant response rating [1, 5]: 0
- Cocklebur plant response rating [1, 6]: 1
- Cocklebur plant response rating [1, 7]: 0
- Plant response rating, Cocklebur [1, 8]: 0
- Plant response rating, Cocklebur [1, 9]: 0
- Plant response rating, Cocklebur [1, 10]: 0
- Cocklebur plant response rating ([1]; Rate 31 g/ha, Postemergence, scale 0 to 10): 0
- Cocklebur plant response rating [1, 11]: 0
- Sugarbeets plant response rating [2, 5]: 0
- Sugarbeets plant response rating [2, 6]: 0
- Sugarbeets plant response rating [2, 7]: 0
- Plant response rating, Sugarbeets [2, 8]: 0
- Plant response rating, Sugarbeets [2, 9]: 0
- Plant response rating, Sugarbeets [2, 10]: 0
- Sugarbeets plant response rating [2, 11]: 0
- S. Flatsedge plant response rating [3, 5]: 0
- S. Flatsedge plant response rating [3, 12]: 0
- S. Flatsedge plant response rating [3, 13]: 0
- Barnyardgrass plant response rating [4, 5]: 0
- Barnyardgrass plant response rating [4, 12]: 0
- Barnyardgrass plant response rating ([4]; Rate 500 g/ha, Postemergence section of Table B, 0 to 10 scale (0 no effect, 10 complete control)): 0
- Barnyardgrass plant response rating [4, 13]: 0

SMILES: CC(C)N(C(=O)n1oc(=O)n(CC#N)c1=O)c1ccccc1 [Compound 434]
- Cocklebur plant response rating [1, 14]: 0
- Cocklebur plant response rating [1, 15]: 0
- Plant response rating, Cocklebur [1, 16]: 0
- Plant response rating, Cocklebur [1, 17]: 0
- Cocklebur plant response rating [1, 18]: 0
- Cocklebur plant response rating [1, 19]: 0
- Cocklebur plant response rating ([1]; Rate 62 g/ha, Postemergence, scale of 0 to 10 where 0 is no effect and 10 is complete control): 0
- Cocklebur plant response rating [1, 20]: 0
- Sugarbeets plant response rating [2, 14]: 0
- Sugarbeets plant response rating [2, 15]: 0
- Plant response rating, Sugarbeets [2, 16]: 0
- Plant response rating, Sugarbeets [2, 17]: 0
- Sugarbeets plant response rating [2, 18]: 0
- Sugarbeets plant response rating [2, 19]: 0
- Sugarbeets plant response rating [2, 20]: 0
- S. Flatsedge plant response rating [3, 21]: 0
- S. Flatsedge plant response rating [3, 22]: 0
- S. Flatsedge plant response rating [3, 23]: 0
- Barnyardgrass plant response rating [4, 21]: 0
- Barnyardgrass plant response rating [4, 22]: 0
- Barnyardgrass plant response rating ([4]; Rate 62 g/ha, Postemergence (flood test species), scale of 0 to 10 where 0 is no effect and 10 is complete control): 0
- Barnyardgrass plant response rating [4, 23]: 0

SMILES: CC(C)N(C(=O)n1oc(=O)n(CC2=NOCCC2)c1=O)c1ccc(F)cc1F [Compound 602]
- Plant response rating, Cocklebur [1, 5]: 0
- Plant response rating, Cocklebur [1, 24]: 0
- Cocklebur plant response rating [1, 25]: 0
- Plant response rating, Cocklebur [1, 15]: 0
- Cocklebur plant response rating [1, 16]: 0
- Cocklebur plant response rating [1, 17]: 0
- Cocklebur plant response rating (0 to 10 scale) ([1]; Preemergence, Rate 250 g/ha): 0
- Plant response rating, Cocklebur [1, 26]: 0
- Plant response rating, Sugarbeets [2, 5]: 0
- Plant response rating, Sugarbeets [2, 24]: 0
- Sugarbeets plant response rating [2, 25]: 0
- Plant response rating, Sugarbeets [2, 15]: 0
- Sugarbeets plant response rating [2, 16]: 0
- Sugarbeets plant response rating [2, 17]: 2
- Plant response rating, Sugarbeets [2, 26]: 5
- Plant response rating, S. Flatsedge (0 to 10 scale, 0 is no effect, 10 is complete control) [3, 27]: 0
- S. Flatsedge plant response rating (0 to 10 scale, 0 is no effect, 10 is complete control) [3, 28]: 0
- S. Flatsedge plant response rating [3, 29]: 0
- S. Flatsedge plant response rating [3, 30]: 0
- Plant response rating, Barnyardgrass (0 to 10 scale, 0 is no effect, 10 is complete control) [4, 27]: 0
- Barnyardgrass plant response rating (0 to 10 scale, 0 is no effect, 10 is complete control) [4, 28]: 0
- Barnyardgrass plant response rating [4, 29]: 0
- Barnyardgrass plant response rating [4, 30]: 0
